Bounds are passed on as bounds.

Holding throughout (type): cell-based
The target of one experiment is T1, human TLR7 (Homo sapiens, UniProt Q9NYK1).
T1 construct: host or cells: HEK-Blue cells
T1 sequence (Q9NYK1 27-1049): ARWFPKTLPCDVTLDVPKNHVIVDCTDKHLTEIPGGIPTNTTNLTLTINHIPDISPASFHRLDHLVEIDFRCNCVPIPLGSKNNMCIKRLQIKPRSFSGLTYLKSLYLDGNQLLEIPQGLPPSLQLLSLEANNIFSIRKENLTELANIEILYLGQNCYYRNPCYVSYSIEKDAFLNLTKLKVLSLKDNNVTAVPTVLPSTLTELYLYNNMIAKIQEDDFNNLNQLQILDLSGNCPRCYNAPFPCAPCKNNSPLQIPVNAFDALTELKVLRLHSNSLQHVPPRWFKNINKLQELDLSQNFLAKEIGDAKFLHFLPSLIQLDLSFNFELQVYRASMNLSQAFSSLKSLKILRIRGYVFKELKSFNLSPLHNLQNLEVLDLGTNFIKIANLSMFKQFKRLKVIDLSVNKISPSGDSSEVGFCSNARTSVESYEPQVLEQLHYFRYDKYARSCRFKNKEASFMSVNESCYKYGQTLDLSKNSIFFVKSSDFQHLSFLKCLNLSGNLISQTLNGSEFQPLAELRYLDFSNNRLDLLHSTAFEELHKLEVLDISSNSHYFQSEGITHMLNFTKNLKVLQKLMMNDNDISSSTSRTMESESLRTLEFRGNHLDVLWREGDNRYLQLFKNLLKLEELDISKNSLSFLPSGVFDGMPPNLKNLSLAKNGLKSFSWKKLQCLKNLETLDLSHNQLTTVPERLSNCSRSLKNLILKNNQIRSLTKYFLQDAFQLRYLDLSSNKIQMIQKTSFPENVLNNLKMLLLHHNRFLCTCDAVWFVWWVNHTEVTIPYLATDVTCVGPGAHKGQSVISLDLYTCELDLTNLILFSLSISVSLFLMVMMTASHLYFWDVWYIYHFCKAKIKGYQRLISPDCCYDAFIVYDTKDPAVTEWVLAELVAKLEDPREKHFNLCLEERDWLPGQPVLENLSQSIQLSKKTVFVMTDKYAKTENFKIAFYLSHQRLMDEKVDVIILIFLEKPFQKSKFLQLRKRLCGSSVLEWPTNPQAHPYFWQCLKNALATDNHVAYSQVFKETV
Put plainly: TLR7 inhibition reporter assay (HEK-Blue SEAP reporter). The following applies: HEK-Blue cells overexpressing human TLR7; gardiquimod 7.5 μM; 22 hour incubation. The procedure, abridged: (§1)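 Human TLR7/8/9 HEK-Blue reporter lines; dose range 0.05 nM–50 μM; 30 min RT preincubation; stimulus gardiquimod 7.5 μM / R848 15.9 μM / ODN2006 5 nM respectively; 22 h, 37 °C; SEAP detected colorimetrically.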
Background: Reporter assays use an easily measured gene product as a stand-in for the process of interest.

The target of a further experiment is T2, human TLR8 (Homo sapiens, UniProt Q9NR97).
T2 construct: host or cells: HEK-Blue cells
T2 sequence (Q9NR97 27-1041): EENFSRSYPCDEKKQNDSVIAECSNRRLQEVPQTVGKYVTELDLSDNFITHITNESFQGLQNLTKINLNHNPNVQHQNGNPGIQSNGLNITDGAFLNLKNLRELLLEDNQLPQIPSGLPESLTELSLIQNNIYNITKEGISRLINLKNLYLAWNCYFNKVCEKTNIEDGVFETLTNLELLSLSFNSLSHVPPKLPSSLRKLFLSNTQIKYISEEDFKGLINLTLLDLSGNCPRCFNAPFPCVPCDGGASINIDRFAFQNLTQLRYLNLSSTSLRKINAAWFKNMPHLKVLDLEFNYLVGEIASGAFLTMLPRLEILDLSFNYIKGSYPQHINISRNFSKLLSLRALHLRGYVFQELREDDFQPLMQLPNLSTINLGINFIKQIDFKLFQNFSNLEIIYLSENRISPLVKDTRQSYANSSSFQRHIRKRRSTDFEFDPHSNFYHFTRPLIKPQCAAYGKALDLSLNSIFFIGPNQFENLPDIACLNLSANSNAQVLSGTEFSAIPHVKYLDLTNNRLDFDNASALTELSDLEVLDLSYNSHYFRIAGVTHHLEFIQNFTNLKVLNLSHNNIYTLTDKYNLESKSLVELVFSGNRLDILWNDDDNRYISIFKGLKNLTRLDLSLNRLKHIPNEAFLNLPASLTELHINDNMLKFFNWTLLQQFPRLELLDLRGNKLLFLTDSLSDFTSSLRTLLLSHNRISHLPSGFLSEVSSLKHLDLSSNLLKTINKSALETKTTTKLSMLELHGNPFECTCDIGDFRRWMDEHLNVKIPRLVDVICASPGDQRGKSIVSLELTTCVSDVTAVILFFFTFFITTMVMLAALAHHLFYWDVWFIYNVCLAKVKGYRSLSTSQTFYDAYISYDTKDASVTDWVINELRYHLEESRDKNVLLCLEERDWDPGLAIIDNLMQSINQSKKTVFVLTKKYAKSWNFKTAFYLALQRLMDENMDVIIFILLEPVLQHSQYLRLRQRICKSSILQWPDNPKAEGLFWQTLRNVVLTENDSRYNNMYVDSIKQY
Put plainly: TLR8 inhibition reporter assay (HEK-Blue SEAP reporter). The settings on record: HEK-Blue cells overexpressing human TLR8; R848 15.9 μM; 22 hour incubation. The procedure, abridged: as §1

A further experiment addresses T3, human TLR9 (Homo sapiens, UniProt Q9NR96).
T3 construct: host or cells: HEK-Blue cells
T3 sequence (Q9NR96 26-1032): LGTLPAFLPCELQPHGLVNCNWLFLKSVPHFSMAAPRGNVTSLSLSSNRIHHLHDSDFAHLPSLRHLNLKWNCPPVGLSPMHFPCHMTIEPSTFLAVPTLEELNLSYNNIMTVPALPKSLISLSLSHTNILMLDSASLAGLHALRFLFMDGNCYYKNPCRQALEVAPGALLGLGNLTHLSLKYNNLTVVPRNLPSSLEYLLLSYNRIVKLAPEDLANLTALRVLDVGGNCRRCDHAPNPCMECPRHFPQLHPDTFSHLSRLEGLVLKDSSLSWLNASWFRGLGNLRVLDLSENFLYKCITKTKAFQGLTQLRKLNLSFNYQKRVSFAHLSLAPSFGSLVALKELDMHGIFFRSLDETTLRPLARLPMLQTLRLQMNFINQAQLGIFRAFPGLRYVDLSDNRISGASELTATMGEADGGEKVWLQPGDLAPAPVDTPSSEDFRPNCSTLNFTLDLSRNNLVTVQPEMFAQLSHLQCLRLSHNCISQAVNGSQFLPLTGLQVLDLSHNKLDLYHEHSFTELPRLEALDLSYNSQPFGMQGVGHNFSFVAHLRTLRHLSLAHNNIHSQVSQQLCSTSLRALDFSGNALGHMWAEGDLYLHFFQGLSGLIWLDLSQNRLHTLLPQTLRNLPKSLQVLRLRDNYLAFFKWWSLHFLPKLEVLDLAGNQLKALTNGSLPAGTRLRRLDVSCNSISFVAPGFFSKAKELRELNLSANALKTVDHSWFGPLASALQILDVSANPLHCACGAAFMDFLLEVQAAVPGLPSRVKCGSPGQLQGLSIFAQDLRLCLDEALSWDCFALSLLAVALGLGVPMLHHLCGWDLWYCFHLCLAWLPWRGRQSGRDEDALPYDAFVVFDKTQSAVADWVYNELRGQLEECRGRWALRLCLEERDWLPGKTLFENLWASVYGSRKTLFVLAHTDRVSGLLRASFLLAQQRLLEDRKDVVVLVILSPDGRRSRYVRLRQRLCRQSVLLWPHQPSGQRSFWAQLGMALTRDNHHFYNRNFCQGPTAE
Description: TLR9 inhibition reporter assay (HEK-Blue SEAP reporter). The following applies: HEK-Blue cells overexpressing human TLR9; ODN2006 5 nM; 22 hour incubation. The procedure, abridged: as §1

Usually IC50 stands for the concentration needed to halve the response being measured. A lower IC50 goes with higher potency. As to `COc1ccc(-c2[nH]c3ccc(N4CCC(N5CC(O)CC5=O)CC4)cc3c2C(C)C)cc1OC` (stereo not drawn) [Example 116, 1-(1-(2-(3,4-dimethoxyphenyl)-3-isopropyl-1H-indol-5-yl)piperidin-4-yl)-4-hydroxypyrrolidin-2-one], the concentration for half-maximal inhibition (IC50) on human TLR7 came to 936 nM; on human TLR8, 94 nM; against human TLR9, 18800 nM.

Regarding `COc1ccc(-c2[nH]c3ccc(N4CCN(C5CC(C)(C)NC(C)(C)C5)CC4)cc3c2C)cc1OC` [Example 171, 2-(3,4-dimethoxyphenyl)-3-methyl-5-(4-(2,2,6,6-tetramethylpiperidin-4-yl)piperazin-1-yl)-1H-indole], the IC50 on human TLR7 amounted to 8990 nM; at human TLR8 it was 32200 nM; against human TLR9, 379 nM.

Consider `COc1ccc(-c2[nH]c3ccc(N4CCN(C5CCCN(C(C)C)CC5)CC4)cc3c2C(C)C)cc1OC` (stereo not drawn) [Example 122, 2-(3,4-dimethoxyphenyl)-3-isopropyl-5-(4-(1-isopropylazepan-4-yl)piperazin-1-yl)-1H-indole], for which the values for the IC50 on human TLR7, against human TLR8 and at human TLR9 were 42 nM, 3.4 nM and 621 nM, respectively.

In the case of `CNCCNC1CCC(Nc2ccc3[nH]c(-c4ccc(OC)c(OC)c4)c(C(C)C)c3c2)CC1` (single isomer, unassigned) [Example 30, N1-(2-(3,4-dimethoxyphenyl)-3-isopropyl-1H-indol-5-yl)-N4-(2-(methylamino)ethyl)cyclohexane-1,4-diamine], the IC50 on human TLR7 turned out to be 434 nM; against human TLR8, 234 nM; at human TLR9 it was 281 nM.

Take `COc1ccc(-c2[nH]c3ccc(N4CCC(N(C)C)C4=O)cc3c2C(C)C)cc1OC` (stereo not drawn) [Example 4, 1-(2-(3,4-dimethoxyphenyl)-3-isopropyl-1H-indol-5-yl)-3-(dimethylamino)pyrrolidin-2-one]: the values for the 50% inhibitory concentration (IC50) on human TLR7, at human TLR8 and on human TLR9 were 67 nM, 81 nM and 9210 nM, respectively.

For `COc1ccc(-c2[nH]c3ccc(NC(=O)CN)cc3c2C(C)C)cc1OC` [Example 11, 2-amino-N-(2-(3,4-dimethoxyphenyl)-3-isopropyl-1H-indol-5-yl)acetamide], the IC50 at human TLR7 was determined as 290 nM; against human TLR8, 17 nM; against human TLR9, 8600 nM.

As for `COc1ccc(-c2[nH]c3ccc(N4CCC(N5CCCC5)CC4)cc3c2C(C)C)cc1OC` [Example 70, 2-(3,4-dimethoxyphenyl)-3-isopropyl-5-(4-(pyrrolidin-1-yl)piperidin-1-yl)-1H-indole], the IC50 amounted to 130 nM against human TLR7, 3.1 nM at human TLR8 and 1700 nM against human TLR9.

Turning to `CNCCN1CCN(c2ccc3[nH]c(-c4ccnc5[nH]ccc45)c(C(C)C)c3c2)CC1` [Example 138, 2-(4-(3-isopropyl-2-(1H-pyrrolo[2,3-b]pyridin-4-yl)-1H-indol-5-yl)piperazin-1-yl)-N-methylethan-1-amine], the 50% inhibitory concentration (IC50) against human TLR7 amounted to 2 nM; against human TLR8, 0.62 nM; on human TLR9, 939 nM.

As for `Cc1c(-c2ccnc3[nH]ccc23)[nH]c2ccc(N3CCN(C4CCN(C)CC4)CC3)cc12` [Example 141, 4-(3-methyl-5-(4-(1-methylpiperidin-4-yl)piperazin-1-yl)-1H-indol-2-yl)-1H-pyrrolo[2,3-b]pyridine], the 50% inhibitory concentration (IC50) against human TLR7 amounted to 2170 nM; at human TLR8, 1720 nM; on human TLR9, 124 nM.

Regarding `CCN1CCC(OC2CCN(c3ccc4[nH]c(-c5ccc(OC)c(OC)c5)c(C(C)C)c4c3)CC2)CC1` [Example 190, 2-(3,4-dimethoxyphenyl)-5-(4-((1-ethylpiperidin-4-yl)oxy)piperidin-1-yl)-3-isopropyl-1H-indole], the figures for the 50% inhibitory concentration (IC50) against human TLR7, on human TLR8 and at human TLR9 were 33 nM, 35 nM and 667 nM, respectively.

On to `COc1ccc(-c2[nH]c3ccc(NC(=O)[C@@H](N)CCCN)cc3c2C(C)C)cc1OC` [Example 20, (S)-2,5-diamino-N-(2-(3,4-dimethoxyphenyl)-3-isopropyl-1H-indol-5-yl)pentanamide], for which the IC50 is 125 nM on human TLR7, 106 nM against human TLR8 and greater than 50000 nM at human TLR9.

The record behind these values is patent US11306092B2, “Amino indole compounds useful as TLR inhibitors” (BRISTOL-MYERS SQUIBB COMPANY, priority 2017, dated 2022).
